Results taken from paper PMC11864979, “First-in-class ultralong-target-residence-time p38α inhibitors as a mitosis-targeted therapy for colorectal cancer” (Nature Cancer, 2025).
“And” between values parts separate entries of the source, which are not always exact repeats. Equal values may be shown once.

Legend:
PDO3 = test: cell viability in patient-derived CRC organoids PDO3; type: cell-based, human; settings: Fig. 3d, replicates
Description: (§1) For in vitro treatment studies, organoids were mechanically dissociated and digested using TrypLE supplemented with 100 µg ml^−1 DNaseI and 10.5 µM Y-27632 dihydrochloride (Invitrogen) at 37 °C. A total of 1,000–2,000 single cells were plated per well in white 96-well plates (Greiner) in culture medium containing 10% GFR Matrigel or Cultrex BME. The treatment with doxycycline (5 µg ml^−1), pharmacological inhibitors or corresponding volumes of DMSO was started 24 h after plating. Doxycycline was obtained from Sigma-Aldrich. […] Cell viability was measured by means of CellTiter-Glo 3D or CellTiter-Glo 2.0 reagent (Promega) according to the manufacturers’ instructions and the Infinite M Plex reader (Tecan, i-control version 3.9.1 software). Results were normalized to vehicle (DMSO) or to shNC. For cell-doubling assays, the cell number was quantified at the corresponding time points using Guava EasyCyte flow cytometer (Luminex, CytoSoft v5.2 software).

PDO1 = test: cell viability in patient-derived CRC organoids PDO1; type: cell-based, human; settings: Fig. 3b, replicates
Description: as §1

BAP organoids = test: cell viability in BAP organoids; type: cell-based, mouse; settings: for therapeutic effect in BAP organoids (in words): 4 days
Description: A total of 1,000–2,000 single cells were plated per well in white 96-well plates (Greiner) in culture medium containing 10% GFR Matrigel or Cultrex BME. The treatment with doxycycline (5 µg ml^−1), pharmacological inhibitors or corresponding volumes of DMSO was started 24 h after plating. Doxycycline was obtained from Sigma-Aldrich. […] Results were normalized to vehicle (DMSO) or to shNC. For cell-doubling assays, the cell number was quantified at the corresponding time points using Guava EasyCyte flow cytometer (Luminex, CytoSoft v5.2 software).

PDO5 = test: cell viability in patient-derived CRC organoids PDO5; type: cell-based, human; settings: Fig. 3f, replicates
Description: as §1

KAP^2D cells = test: western blot analysis of p38α signaling in KAP^2D cells; type: cell-based, mouse; settings: 1 µM, 1 day
Description: Proteins were extracted from cells and organoids using radioimmunoprecipitation assay extraction buffer (50 mM Tris pH 8.0, 150 mM NaCl, 1% Triton X-100, 0.5% sodium deoxycholate, 0.1% SDS, 5 mM EDTA and 1 mM EGTA) supplemented with protease and phosphatase inhibitors (cOmplete and PhosSTOP, Roche). Protein concentrations were measured using the DC (detergent compatible) Protein Assay (Bio-Rad). Briefly, 20–30 µg of protein was separated by SDS–PAGE and transferred onto PVDF membranes (Immobilon-P, Millipore). Membranes were blocked in 5% BSA and Tris-buffered saline (TBS)–Tween buffer and then incubated with primary antibodies overnight at 4 °C and with horseradish peroxidase-conjugated secondary antibodies for 1 h at room temperature. All used antibodies and dilutions are listed in the Nature Portfolio Reporting Summary. The blots were visualized using the ChemiDoc MP Imaging System (BIO-RAD) and ImageLab version 5.2.1 software. Vinculin and β-actin were used as loading controls.

340 wild-type kinases [1] = target: T1, 340 wild-type kinases (Homo sapiens, UniProt O75582); test: selectivity profiling in a panel of 340 wild-type kinases (Reaction Biology Europe); type: binding; settings: 1 µM 2015; read-out: RPS6KA5 residual activity
T1 construct: purchased Reaction Biology Europe
T1 sequence (O75582 whole entry): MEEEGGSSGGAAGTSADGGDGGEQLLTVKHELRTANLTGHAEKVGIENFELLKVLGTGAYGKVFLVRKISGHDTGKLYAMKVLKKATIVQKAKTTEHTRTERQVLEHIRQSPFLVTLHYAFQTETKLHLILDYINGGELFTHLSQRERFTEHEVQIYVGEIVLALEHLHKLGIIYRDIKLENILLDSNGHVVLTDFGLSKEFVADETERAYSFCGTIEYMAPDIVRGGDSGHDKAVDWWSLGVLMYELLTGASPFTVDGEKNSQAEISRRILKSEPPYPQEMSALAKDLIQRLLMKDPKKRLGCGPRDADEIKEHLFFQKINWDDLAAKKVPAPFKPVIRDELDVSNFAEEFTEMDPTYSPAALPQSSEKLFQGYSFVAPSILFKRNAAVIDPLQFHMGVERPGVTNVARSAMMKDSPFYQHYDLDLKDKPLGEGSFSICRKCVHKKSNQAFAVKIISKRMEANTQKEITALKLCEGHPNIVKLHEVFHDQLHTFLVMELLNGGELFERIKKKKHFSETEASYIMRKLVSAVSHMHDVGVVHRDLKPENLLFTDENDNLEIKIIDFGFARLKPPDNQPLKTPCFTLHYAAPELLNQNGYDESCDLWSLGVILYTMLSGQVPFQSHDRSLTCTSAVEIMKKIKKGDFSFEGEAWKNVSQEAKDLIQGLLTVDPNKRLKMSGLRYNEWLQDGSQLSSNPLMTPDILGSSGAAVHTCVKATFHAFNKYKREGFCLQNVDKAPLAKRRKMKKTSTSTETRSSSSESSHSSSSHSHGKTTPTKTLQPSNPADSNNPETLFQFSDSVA
Excerpt: (§2) Potential interactions between 2015 and 340 wild-type kinases were checked by means of a competition binding assay performed by Reaction Biology Europe (Supplementary Table 15).

340 wild-type kinases [2] = target: T2, 340 wild-type kinases (Homo sapiens, UniProt Q00537); test: as above; type: binding; settings: CDK17/p35NCK; 0.2 µM; read-out: residual activity
T2 construct: purchased Reaction Biology Europe
T2 sequence (Q00537 whole entry): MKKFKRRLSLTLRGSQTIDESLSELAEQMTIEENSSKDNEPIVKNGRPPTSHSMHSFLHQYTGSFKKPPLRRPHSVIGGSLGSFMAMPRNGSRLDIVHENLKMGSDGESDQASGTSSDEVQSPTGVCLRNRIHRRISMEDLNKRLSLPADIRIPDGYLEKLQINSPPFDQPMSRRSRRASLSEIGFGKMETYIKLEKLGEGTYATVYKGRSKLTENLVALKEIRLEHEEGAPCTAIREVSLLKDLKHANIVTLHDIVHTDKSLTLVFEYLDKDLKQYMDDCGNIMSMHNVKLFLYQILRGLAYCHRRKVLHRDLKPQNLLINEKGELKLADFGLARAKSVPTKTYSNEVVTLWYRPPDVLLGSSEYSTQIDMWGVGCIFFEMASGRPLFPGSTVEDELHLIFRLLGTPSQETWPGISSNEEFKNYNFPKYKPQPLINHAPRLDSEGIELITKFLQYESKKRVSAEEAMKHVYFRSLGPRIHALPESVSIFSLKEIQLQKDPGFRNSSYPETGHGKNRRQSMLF
Excerpt: as §2

340 wild-type kinases [3] = target: T3, 340 wild-type kinases (Homo sapiens, UniProt P48729); test: as above; type: binding; settings: 1 µM 2015; read-out: CK1alpha1 residual activity
T3 construct: purchased Reaction Biology Europe
T3 sequence (P48729 whole entry): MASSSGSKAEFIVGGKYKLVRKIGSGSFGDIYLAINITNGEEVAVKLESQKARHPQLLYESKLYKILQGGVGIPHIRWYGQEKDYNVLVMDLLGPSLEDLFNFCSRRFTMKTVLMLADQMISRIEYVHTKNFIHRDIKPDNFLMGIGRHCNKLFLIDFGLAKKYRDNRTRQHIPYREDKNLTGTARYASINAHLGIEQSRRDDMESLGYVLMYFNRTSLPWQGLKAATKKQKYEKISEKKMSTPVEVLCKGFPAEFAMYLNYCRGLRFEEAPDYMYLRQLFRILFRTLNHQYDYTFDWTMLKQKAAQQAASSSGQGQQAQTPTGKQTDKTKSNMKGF
Excerpt: as §2

340 wild-type kinases [4] = target: T4, 340 wild-type kinases (Homo sapiens, UniProt P25098); test: as above; type: binding; settings: 1 µM 2015; read-out: GRK2 residual activity
T4 construct: purchased Reaction Biology Europe
T4 sequence (P25098 1-689): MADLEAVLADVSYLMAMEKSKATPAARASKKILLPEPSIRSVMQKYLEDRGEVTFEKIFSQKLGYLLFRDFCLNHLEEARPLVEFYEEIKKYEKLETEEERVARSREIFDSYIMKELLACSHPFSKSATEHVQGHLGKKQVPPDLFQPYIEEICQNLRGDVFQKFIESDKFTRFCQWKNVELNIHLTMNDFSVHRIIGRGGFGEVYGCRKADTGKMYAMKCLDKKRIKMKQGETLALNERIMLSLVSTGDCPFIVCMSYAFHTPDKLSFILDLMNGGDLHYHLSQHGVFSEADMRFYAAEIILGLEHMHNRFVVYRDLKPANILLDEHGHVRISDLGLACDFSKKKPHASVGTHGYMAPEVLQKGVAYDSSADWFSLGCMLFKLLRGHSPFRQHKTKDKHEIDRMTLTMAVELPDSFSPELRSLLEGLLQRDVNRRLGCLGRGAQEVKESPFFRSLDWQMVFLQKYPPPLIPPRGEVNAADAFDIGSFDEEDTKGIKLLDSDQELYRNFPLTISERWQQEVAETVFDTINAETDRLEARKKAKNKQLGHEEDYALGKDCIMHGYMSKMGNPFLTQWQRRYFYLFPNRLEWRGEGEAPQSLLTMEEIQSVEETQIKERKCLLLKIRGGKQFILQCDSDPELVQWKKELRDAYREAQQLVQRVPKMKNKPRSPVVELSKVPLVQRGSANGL
Excerpt: as §2

340 wild-type kinases [5] = target: T5, 340 wild-type kinases (Homo sapiens, UniProt Q8TDX7); test: as above; type: binding; settings: NEK7; 1 µM; read-out: residual activity
T5 construct: purchased Reaction Biology Europe
T5 sequence (Q8TDX7 whole entry): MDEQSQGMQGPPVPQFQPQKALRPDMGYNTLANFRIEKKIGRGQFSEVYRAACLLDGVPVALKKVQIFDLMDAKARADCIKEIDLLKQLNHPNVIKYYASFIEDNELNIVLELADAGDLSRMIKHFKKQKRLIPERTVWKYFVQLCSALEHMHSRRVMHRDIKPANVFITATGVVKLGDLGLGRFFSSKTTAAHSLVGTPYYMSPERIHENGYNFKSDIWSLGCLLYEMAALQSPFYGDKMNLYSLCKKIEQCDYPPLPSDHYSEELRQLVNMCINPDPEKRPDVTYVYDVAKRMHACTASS
Excerpt: as §2

[6] = Fig. 2j, 0,5 µM, replicates, 5 µM

SMILES | Cell viability (%) (PDO3; 0,5 µM, 5 µM) | Cell viability (%) (PDO3; 0,25 µM, 25 µM) | Cell viability (%) (PDO3; 1 µM) | Cell viability (%) (PDO1; 0.5 µM) | Cell viability (%) (PDO1; 1 µM) | viability at 1 µM (PDO1; Homo sapiens, 1 µM) [%] | therapeutic effect in BAP organoids (in words) (BAP organoids) | Cell viability (%) (BAP organoids; [6]) | Cell viability (%) (BAP organoids; Fig. 2j, 0,25 µM, replicates) | Cell viability (%) (BAP organoids; Fig. 2j, 1 µM, replicates) | Cell viability (%) (PDO5; 0,5 µM, 5 µM) | Cell viability (%) (PDO5; 0,25 µM, 25 µM) | Cell viability (%) (PDO5; 1 µM) | MK2^T334 phosphorylation (in words) (KAP^2D cells) | also measured
O=C(NCCN1CCOCC1)c1ccc2c(c1)C(=O)c1ccc(Nc3ccc(F)c(NC(=O)c4ccccc4)c3)cc1CC2 [Compound 1639] | 112.45% and 94.73% and 79.47% | 111.26% and 82.86% and 90.87% | 101.94% and 81.53% and 90.79% | 106.52% and 84.18% and 86.35% | 70.08% and 65.69% | 63 | no therapeutic effects | 89.71% and 139.45% and 151.95% | 99.59% and 127.60% and 118.40% | 87.55% and 125.47% and 95.41% | 95.85% and 89.27% | 102.83% and 96.93% and 77.02% | 104.30% and 89.98% and 81.04% | reduced MK2^T334 phosphorylation | –
CNC(=O)c1ccc2c(c1)C(=O)c1ccc(Nc3ccc(F)c(NC(=O)C4CC4)c3)cc1CC2 [Compound 2015] | 69.11% and 51.45% | 56.63% and 78.13% and 87.76% | 56.28% and 48.78% | 8.84% and 9.77% | 9.82% and 5.19% | 7.92 | increased responsiveness | 18.53% and 25.34% | 71.10% and 78.07% and 119.22% | 28.06% and 32.78% | 16.61% and 12.02% | 73.65% and 55.49% | 16.85% and 11.03% | strongly reduced | remaining activity at 1 µM (340 wild-type kinases [1]): 90.2%; remaining activity at 0.2 µM (340 wild-type kinases [2]): 94.8%; remaining activity at 1 µM (340 wild-type kinases [3]): 94.9%; remaining activity at 1 µM (340 wild-type kinases [4]): 80.8%; remaining activity at 1 µM (340 wild-type kinases [5]): 110%; viability at 5 µM (PDO3; Homo sapiens, 72 h, 0,5 µM): 50.1%; viability at 1 µM (PDO3; Homo sapiens, 72 h, 1 µM): 53%; viability at 0.5 µM (PDO1; Homo sapiens, 0.5 µM): 10.1%; viability at 5 µM (BAP organoids; Mus musculus, Fig. 2j, 0,5 µM, replicates): 21.1%; viability at 1 µM (BAP organoids; Mus musculus, Fig. 2j, 1 µM, replicates): 29.7%; viability at 1 µM (PDO5; Homo sapiens, 1 µM): 12.7%
